Experimental data published in patent US12661342B2, “Heteroaryl compounds and therapeutic uses thereof in conditions associated with the alteration of the activity of beta-glucocerebrosidase” (GT GAIN THERAPEUTICS SA, priority 2019, dated 2026).

target: T1, β-glucocerebrosidase (Homo sapiens, UniProt P04062, L483P); test: Enhancement of β-glucocerebrosidase activity measured in Gaucher disease fibroblasts (4-MU-β-D-glucopyranoside substrate, intact cells); format: cell-based; settings: GBA fibroblasts bearing L444P (GM08760A, homozygous p.L444P); compound at concentrations between 6 and 50 μM; 4 days incubation
T1 construct: host or cells: human Gaucher disease patient fibroblasts GM08760A
T1 sequence (P04062 40-536 L483P): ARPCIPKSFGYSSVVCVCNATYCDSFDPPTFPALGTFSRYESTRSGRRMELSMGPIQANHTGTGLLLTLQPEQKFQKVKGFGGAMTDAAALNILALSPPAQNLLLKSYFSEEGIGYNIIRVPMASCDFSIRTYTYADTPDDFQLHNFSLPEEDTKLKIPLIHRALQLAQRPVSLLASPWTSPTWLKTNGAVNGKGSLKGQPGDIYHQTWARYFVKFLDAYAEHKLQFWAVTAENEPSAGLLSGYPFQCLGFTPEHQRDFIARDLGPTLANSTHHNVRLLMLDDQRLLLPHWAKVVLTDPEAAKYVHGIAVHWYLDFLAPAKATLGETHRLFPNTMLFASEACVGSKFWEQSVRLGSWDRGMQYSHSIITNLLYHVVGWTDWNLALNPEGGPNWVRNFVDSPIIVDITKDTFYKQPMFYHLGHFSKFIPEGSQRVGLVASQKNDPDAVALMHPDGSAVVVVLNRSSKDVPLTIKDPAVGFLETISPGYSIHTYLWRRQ
Procedure: Human fibroblasts from a patient with Gaucher disease homozygous for p.L444P mutation (GM08760A) were purchased from Coriell Institute for Medical Research (Camden, NJ, USA).
Fibroblasts were seeded at 5×10^3 cells per well in 96-well cell culture plates (Corning, NY, USA) in Dulbecco's Modified Eagle's Media (DMEM) supplemented with 10% of fetal bovine serum (FBS), 1% penicillin/streptomycin (P/S) (Thermo Fisher Scientific, Waltham, MA, USA) and grown at 37° C., 5% CO2 overnight for cell attachment. Subsequently, cells were incubated in the absence or presence of the compounds at the desired concentration for 4 days. After incubation, cells were washed twice with phosphate-buffered saline (PBS) and enzyme activity assay was performed.
β-glucocerebrosidase activity in intact cultured cells was measured by using 4-methylumbelliferyl-β-D-glucopyranoside substrate (Apollo Scientific, UK). Briefly, cells were incubated with 4-MU-β-D-glucopyranoside in 0.1 M acetate buffer pH=4 at 37° C. for 1 hour. The reaction was stopped by adding 200 μL at 100 mM glycine-NaOH pH=10.7. The liberated 4-MU was measured on a GloMax Discover plate reader (Promega, Madison, WI, USA) with and excitation at 340 nm and emission at 460 nm. Enzyme activities were expressed in treated cells as X-fold increase in comparison with non-treated cells (X=1 represents no enhancement).
The capacity of the compounds of the disclosure to produce an increase in enzyme activity in GBA fibroblasts bearing L444P at concentrations between 6 and 50 μM is denoted as follows: • Increase in comparison with non-treated of >2.0 fold is shown as A • Increase in comparison with non-treated of >1.7-2.0 fold is shown as B • Increase in comparison with non-treated of 1.2-1.7 fold is shown as C • D means that no increase compared with non-treated cells was detected in this method • ND means “not determined”

Compound | Range: increase in enzyme activity in comparison with non-treated cells (Enzyme activity assay for compounds of Examples 33-141) | Range: increase in enzyme activity in comparison with non-treated cells (Enzyme activity assay for exemplified compounds)
CN(C(=O)c1cc(N)nc(Nc2ccccc2O)c1)C1Cc2ccccc2C1 [Example 44, 2-Amino-N-(2,3-dihydro-1H-inden-2-yl)-6-((2-hydroxyphenyl)amino)-N-methyl-isonicotinamide] | C (Increase in comparison with non-treated of 1.2-1.7 fold is shown as C) | –
COc1ccc(Nc2nc(N)nc3c2CCN(Cc2ccccc2)C3)cc1 [Example 26, 7-Benzyl-N4-(4-methoxyphenyl)-5,6,7,8-tetrahydropyrido[3,4-d]pyrimidine-2,4-diamine] | – | C (Increase in comparison with non-treated of 1.2-1.7 fold is shown as C)
CN(C(=O)c1cc(N)cc(Nc2cccc(F)c2)n1)C1Cc2ccccc2C1 [Example 107, 4-Amino-N-(2,3-dihydro-1H-inden-2-yl)-6-((3-fluorophenyl)amino)-N-methylpicolinamide] | C (Increase in comparison with non-treated of 1.2-1.7 fold is shown as C) | –
COc1cccc(Nc2nc(N)c3c(n2)CN(Cc2ccccc2)CC3)c1 [Example 27, 7-Benzyl-N^2-(3-methoxyphenyl)-5,6,7,8-tetrahydropyrido[3,4-d]pyrimidine-2,4-diamine] | – | A (Increase in comparison with non-treated of >2.0 fold is shown as A)
Nc1cc(C(=O)N2Cc3ccccc3C2)nc(Nc2cccc(O)c2)n1 [Example 39, (6-Amino-2-((3-hydroxyphenyl)amino)pyrimidin-4-yl)(isoindolin-2-yl)methanone] | C (Increase in comparison with non-treated of 1.2-1.7 fold is shown as C) | –
Nc1cc(Nc2cccc3c2OCO3)cc(C(=O)Nc2ccccc2)n1 [Example 73, 6-Amino-4-(benzo[d][1,3]dioxol-4-ylamino)-N-phenylpicolinamide] | C (Increase in comparison with non-treated of 1.2-1.7 fold is shown as C) | –
Nc1cc(Nc2ccccc2O)nc(C(=O)N2CCN(c3ccccc3)CC2)c1 [Example 88, (4-Amino-6-((2-hydroxyphenyl)amino)pyridin-2-yl)(4-phenylpiperazin-1-yl)methanone] | C (Increase in comparison with non-treated of 1.2-1.7 fold is shown as C) | –
COc1cccc(Nc2cc(N)nc(C(=O)NC3Cc4ccccc4C3)c2)c1.Cl [Example 141, 6-Amino-N-(2,3-dihydro-1H-inden-2-yl)-4-((3-methoxyphenyl)amino)picolinamide hydrochloride] | C (Increase in comparison with non-treated of 1.2-1.7 fold is shown as C) | –
CN(C(=O)c1cc(Nc2ccccc2O)nc(N)n1)C1Cc2ccccc2C1 [Example 82, 2-Amino-N-(2,3-dihydro-1H-inden-2-yl)-6-((2-hydroxyphenyl)amino)-N-methylpyrimidine-4-carboxamide] | C (Increase in comparison with non-treated of 1.2-1.7 fold is shown as C) | –
CN(C(=O)c1cc(N)nc(Nc2ccccc2O)n1)c1ccccc1 [Example 5, 6-Amino-2-((2-hydroxyphenyl)amino)-N-methyl-N-phenylpyrimidine-4-carboxamide] | – | C (Increase in comparison with non-treated of 1.2-1.7 fold is shown as C)
Nc1cc(Nc2ccc(F)cc2)nc(C(=O)NC2Cc3ccccc3C2)c1 [Example 98, 4-Amino-N-(2,3-dihydro-1H-inden-2-yl)-6-((4-fluorophenyl)amino)picolinamide] | B (Increase in comparison with non-treated of >1.7-2.0 fold is shown as B) | –
